According to paper PMC3984052 (Bioorganic & medicinal chemistry, 2014):

System: PrP^C in N2a-cl3 neuroblastoma cells that overexpress PrP^C
Format: cell-based, mouse
Details: values not given

Compound	Potency (EC50 by ELISA) in N2a-cl3 cells, in words
NC(=O)c1ccccc1NC(=O)c1cccnc1N1CCCCC1 [IND87406]	potent
CCOC(=O)c1[nH]c2c(c1C)C(=O)CC(c1ccco1)C2 (stereo not drawn) [IND87564]	potent
COc1cc(OC)cc(C(=O)Nc2ccc(I)cn2)c1 [IND85671]	potent
